Data: patent US5356796A, “Repressor protein and operon for regulating expression of polypeptides and its use in the preparation of 2,2-dialkyglycine decarboxylase of Pseudomonas cepacia” (priority 1992, dated 1994)

Columns and labels:
[1] = tested on: dialkylglycine decarboxylase gene expression in E. coli DH5α/pKBD6; assay: Time course of dialkylglycine decarboxylase induction in E. coli DH5α/pKBD6; type: cell-based, Escherichia coli; settings: DH5α/pKBD6 in minimal medium with ammonium chloride; amino acid added during growth (10 mM in FIG. 7 legend, 8.0 mM in method)
Experimental: FIG. 7 depicts induction of dialkylglycine decarboxylase activity in E. coli DH5a/pKBD6 cultures by various amino acids. One-liter cultures containing minimal salts, glucose, NH4 Cl, and tetracycline (12 μg/ml) were supplemented at the indicated time with amino acid (final concentration, 10 mM). Absorbance of the culture was measured at 600 nm in a 1-cm cell ( -- ). Each activity assay contained 60 absorbance units of resuspended bacteria (.largecircle.--.largecircle.)
Radiochemical Dialkylglycine Decarboxylase Assay--Dialkylglycine decarboxylase activity was measured under zero-order conditions essentially as described (Dinwoodie and Boeker, 1979). Assay reactions contained 500 μL of protein solution (100 mM MOPS^1, (MOPS=3-(N-morphalino)propanesulfonic acid), 25 mM KCl, 0.05 mM PLP, (PLP=pyridoxal 5'-phosphate), pH 7.00 or 30 mM Tris, 40 mM KCl, 0.05 mM PLP pH 7.90) plus 0.045 mL of substrate solution (245 mM 2-methylalanine, 62 mM sodium pyruvate, containing 0.25 μCi [1-^14 C]2-methylalanine)- Assays were carried out in stoppered 12×220 mm test tubes containing a folded 10×25 mm piece of filter paper soaked with 24 μL of 2:1 ethanolamine/2-ethoxyethanol- After incubation at room temperature (25° C.) for one or two hours, the reaction was quenched with 200 μL of 50% trichloroacetic acid, ^14 CO2 was collected for one hour, and the filter paper was counted in 10 mL of Beckman Ready Safe cocktail. One unit is defined as the amount of activity required to produce 1 nanomole of CO2 per min. at 25° C.
Time Course of Dialkylglycine Decarboxylase Induction--An 800-mL portion of M9 containing 12 μg/mL tetracycline in a 6-L conical flask was inoculated with DH5α/pKBD6. The flask was shaken at 37° C. and the absorbance at 600 nm was measured periodically. At various times during cell growth aliquots containing 60. AU's (absorbance units) of cells were removed, stored on ice, concentrated by centrifugation, and resuspended in 1.0 mL MOPS buffer. Aliquots of 0.50 mL were assayed for dialkylglycine activity. After the first two samples were taken, an amino acid (2-methylalanine, R,S-isovaline, D-alanine, or L-alanine) was added to a final concentration of 8.0 mM and sampling was continued.

[2] = tested on: dialkylglycine decarboxylase gene (dgdA) expression controlled by the P. cepacia repressor, in E. coli JM109/pGEM7Z14; type: cell-based, Escherichia coli; settings: 20 mM amino acid in culture medium
Experimental: Induction Stereochemistry--The induction phenomenon was further investigated by surveying the inducing ability of the separate isovaline stereoisomers and 15 other structurally similar amino acids (Table 3).
In some experiments 20 mM 2-methylalanine or other amino acid or 1 mg/mL IPTG was added to the growth medium. […] Protein concentrations were determined by dye binding (Read and Northcote, 1981).

[3] = target: T1, Pseudomonas cepacia 2,2-dialkylglycine decarboxylase repressor (dgdR gene product, SEQ ID NO: 11) bound to operators O1 and O2 (Burkholderia cepacia, UniProt P16931); assay: Gel mobility shift assay of dgdR repressor with the 788 bp DNA fragment in presence of 2-methylalanine; type: binding; settings: 20 mM 2-methylalanine in gel; 788 bp fragment containing O1 and O2
T1 construct: crude extract or ammonium sulfate fraction; gel shift on dgd operator DNA
Experimental: Repressor Preparation--A 100 ml portion of LB medium containing about 50 μg/ml carbenicillin was inoculated with about a 2 ml overnight culture of JM109/pJKDGDR1 and was grown at about 37° C. to an OD600 of 1. IPTG was added to a final concentration of about 1 mM, the culture was shaken another 4 h, and then was pelleted by centrifugation at 4000 xg at about 4° C. The pellet was resuspended in 5 ml buffer (50 mM TrisHCl pH 7.9, 50 mM KCl), sonicated 3×0.5 min at about 0° C., and centrifuged for about 15 min at about 12,000 xg at about 4° C. Aliquots of the supernatant were used for gel shift assays and SDS-PAGE. Other aliquots were partially purified by selective precipitation with 1.0 M ammonium sulfate. Protein concentration was determined by the dye binding method of Read and Northcote (1981). […]
Gel Shift Assays--A 10 μl assay mixture contained about 50 ng of DNA fragment, 1.0 μg of repressor extract (or 1.0 μg of extract from a JM109 strain containing a dgdA-pBTac1 recombinant), 10 mM TrisHCl pH 7.6, 5 mM sodium acetate, 2.5% glycerol, and 0.005% bovine serum albumin. The mixture was incubated 5 to 20 min at room temperature, about 3 μl of 50% sucrose/0.1% bromophenol blue was added, and the entire sample was analyzed by electrophoresis in a 1 mm 4% polyacrylamide gel containing about […] Tris, 380 mM glycine, 4 mM EDTA, and 2.5% glycerol. […]

[4] = target: Pseudomonas cepacia 2,2-dialkylglycine decarboxylase (Burkholderia cepacia, UniProt P16932); settings: isovaline isomer as substrate of the decarboxylase; read-out: Michaelis constant; cited from earlier work
Chain of Pseudomonas cepacia 2,2-dialkylglycine decarboxylase (P16932 2-433): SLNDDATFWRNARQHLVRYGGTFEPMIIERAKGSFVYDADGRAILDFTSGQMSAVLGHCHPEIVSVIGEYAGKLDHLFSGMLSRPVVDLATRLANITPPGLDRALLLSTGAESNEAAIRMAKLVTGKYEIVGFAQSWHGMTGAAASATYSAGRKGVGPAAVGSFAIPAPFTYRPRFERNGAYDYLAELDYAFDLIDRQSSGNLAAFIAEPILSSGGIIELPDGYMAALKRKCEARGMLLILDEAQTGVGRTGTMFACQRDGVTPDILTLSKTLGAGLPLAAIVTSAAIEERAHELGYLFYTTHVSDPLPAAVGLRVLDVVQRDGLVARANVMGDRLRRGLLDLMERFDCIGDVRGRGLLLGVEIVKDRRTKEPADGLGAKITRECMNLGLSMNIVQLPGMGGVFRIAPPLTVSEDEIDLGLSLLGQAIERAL

T1 sequence (P16931 whole entry, the tested form may be a part): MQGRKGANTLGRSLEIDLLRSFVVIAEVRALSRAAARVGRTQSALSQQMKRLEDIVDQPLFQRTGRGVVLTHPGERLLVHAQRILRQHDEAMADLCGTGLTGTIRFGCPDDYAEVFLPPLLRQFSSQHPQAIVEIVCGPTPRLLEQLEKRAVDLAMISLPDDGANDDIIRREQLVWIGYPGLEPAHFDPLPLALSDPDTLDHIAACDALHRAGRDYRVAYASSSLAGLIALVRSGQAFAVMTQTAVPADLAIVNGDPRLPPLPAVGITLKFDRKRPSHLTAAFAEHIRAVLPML

| SMILES | induction of decarboxylase specific activity after amino acid addition (in words) [1] | further results |
| --- | --- | --- |
| CCC(C)(N)C(=O)O (racemic) [racemic isovaline, isovaline (2-ethylalanine)] | immediate and rapid increase in decarboxylase specific activity | – |
| NC1(C(=O)O)CCCC1 [1-Aminocyclopentane carboxylic acid] | – | induction of decarboxylase (in words) [2]: induced an intermediate level |
| CC(C)(N)C(=O)O [2-Methylalanine] | immediate and rapid increase in decarboxylase specific activity | effect on repressor binding to operators (gel shift, in words) [3]: releases O1, but not O2, binding |
| C[C@@H](N)C(=O)O [D-Alanine] | no decarboxylase production | – |
| C[C@H](N)C(=O)O [L-Alanine] | no decarboxylase production | – |
| CC[C@@](C)(N)C(=O)O [R-Isovaline] | – | Km [4]: 1 mM |
| CC[C@](C)(N)C(=O)O [S-Isovaline] | – | Km [4]: 25 mM |
